Assays:
[1] = test system: A/HongKong/2/68 (H3N2); type: cell-based, influenza A virus H3N2
[2] = test system: A/rhea/North Carolina/39482/93 (H7N1); type: cell-based, influenza A virus H7N1
[3] = test system: H1N1-GFP (A/Puerto Rico/8/34, NS1-GFP); type: cell-based, influenza A virus H1N1
[4] = test system: H1N1-GFP (A/Puerto Rico/8/34, NS1-GFP); type: cell-based, influenza A virus H1N1; conditions: for IC50: read-out: IC50 anti-H1N1
[5] = test system: MDCK cells
[6] = test system: VN04Low (H5N1); type: cell-based, influenza A virus H5N1; conditions: read-out: IC50 H5N1 plaque reduction
[7] = test system: VN04Low (H5N1), A/Vietnam/1203/04; type: cell-based, influenza A virus H5N1
[8] = test system: HIV/H5N1 pseudovirus; type: cell-based, influenza A virus H5N1; conditions: 10 µM
[9] = test system: HIV/H5N1 pseudovirus; type: cell-based, influenza A virus A/Goose/Qinghai/59/05 (H5N1); conditions: read-out: IC50 HIV/H5N1
[10] = test system: HIV/H5N1 pseudovirus HA-mediated hemolysis; conditions: read-out: IC50 hemolysis inhibition; pH 5
[11] = test system: A/Puerto Rico/8/34 (H1N1); type: cell-based, influenza A virus H1N1; conditions: read-out: IC50 H1N1 plaque reduction
[12] = test system: his-tagged HA (H5) protein binding to A549 cells; design: species or system influenza A virus H5; conditions: for IC50: read-out: IC50 HA (H5) protein binding to A549 cells
[13] = test system: A549 cells; assay: Cell viability assay; conditions: 48 h, CellTiter-Glo
[14] = test system: A/Puerto Rico/8/34 (H1N1); conditions: oral administration; ref van Dongen et al., 2019; cited from earlier work

Compound: CC(C)N1CCC(NC(=O)c2ccc(Cl)cc2Cl)CC1 [CBS1116, 2,4-dichloro-N-(1-isopropyl-4-piperidinyl) benzamide]
- inhibition against H3N2 [1]: no inhibition
- inhibition against H7N1 [2]: no inhibition
- cells infected by H1N1-GFP, added at 0h [3]: 0%
- cells infected by H1N1-GFP, added at +1h [3]: 17%
- cells infected by H1N1-GFP, added at +2h [3]: 26%
- cells infected by H1N1-GFP, added at +3h [3]: 33%
- cells infected by H1N1-GFP, added at -1h [3]: 38%
- H1N1-GFP infection at 5 μM [4]: completely blocked
- concentration at which significant inhibition of H1N1 was observed [4]: 5 µM
- IC50 [4]: 0.4 µM
- cell toxicity to MDCK cells [5]: no cell toxicity
- IC50 [6]: 13.8 µM
- inhibitory activity against VN04Low strain [7]: inhibitory activity against VN04Low strain in a concentration-dependent manner
- inhibition of HIV/H5N1 infection, added at 0h [8]: ~ 99%
- inhibition of HIV/H5N1 infection, added at +1h [8]: 75%
- inhibition of HIV/H5N1 infection, added at +2h [8]: 41%
- inhibition of HIV/H5N1 infection, added at -1h [8]: no inhibition
- IC50 [9]: 3.9 µM
- IC50 [10]: 6 µM
- IC50 [11]: 0.4 µM
- HA protein still bound to the cells [12]: 100%

Compound: CC(=O)N[C@H]1[C@H]([C@H](O)[C@H](O)CO)O[C@@](O[C@H]2[C@@H](O)[C@@H](CO)O[C@@H](O[C@H]3[C@H](O)[C@@H](O)C(O)O[C@@H]3CO)[C@@H]2O)(C(=O)O)C[C@@H]1O (stereo partly shown) [2,3-sialyllactose]
- inhibition of HA (H5) protein binding at 9 mM [12]: inhibited protein binding completely
- IC50 [12]: 1800 µM

Compound: CC(C)N1CCC(NC(=O)c2c(Cl)cccc2Cl)CC1 [CBS1117]
- IC50 [4]: 0.07 µM
- CC50 [13]: 274 µM

Compound: CC(=O)Nc1ccc2oc(-c3ccnc(C(=O)N4CCN([C@H](c5ccccc5)c5nnn(C)n5)CC4)c3)nc2c1 [JNJ4796]
- protection of mice against H1N1 challenge [14]: protects mice

Compound: CC(=O)N[C@H]1[C@H]([C@H](O)[C@H](O)CO)O[C@@](OC[C@H]2O[C@@H](O[C@H]3[C@H](O)[C@@H](O)C(O)O[C@@H]3CO)[C@H](O)[C@@H](O)[C@H]2O)(C(=O)O)C[C@@H]1O (stereo partly shown) [2,6-sialyllactose]
- inhibition of HA (H5) protein binding at 27 mM [12]: 47%
- IC50 [12]: 29500 µM

— publication PMC7243365 (Antiviral research, 2020)
